Laboratory results published in ChEMBL document CHEMBL1201862, “PubChem BioAssay data set” (2004).
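Cells were grown in 96-well plates and exposed to each compound for 48 hours at five concentrations; endpoints were interpolated linearly between bracketing concentrations, or set to the highest concentration if not reached. Here, GI50 denotes the concentration required for 50% inhibition of growth.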 The source made the active and inactive calls. No stated cut-off is given here; in the data, active = GI50 up to about 1.1 µM and inactive = higher.

What was measured:
Experiment in all cases: growth of human tumour cells (NCI), 48 h
[1] = test system: OVCAR-5
[2] = test system: HL-60
[3] = test system: HCT-116
[4] = test system: SK-MEL-5
[5] = test system: CAKI-1
[6] = test system: OVCAR-4
[7] = test system: M14
[8] = test system: SF-295
[9] = test system: SK-MEL-2
[10] = test system: Malme-3M
[11] = test system: MDA-N
[12] = test system: MDA-MB-231
[13] = test system: SW-620
[14] = test system: ACHN
[15] = test system: MOLT-4
[16] = test system: K562
[17] = test system: SNB-19
[18] = test system: NCI-H460
[19] = test system: NCI-H522
[20] = test system: UO-31

| SMILES | GI50 [1] | GI50 [2] | GI50 [3] | GI50 [4] | GI50 [5] | GI50 [6] | GI50 [7] | GI50 [8] | GI50 [9] | GI50 [10] | GI50 [11] | GI50 [12] | GI50 [13] | GI50 [14] | GI50 [15] | GI50 [16] | GI50 [17] | GI50 [18] | GI50 [19] | GI50 [20] |
| --- | --- | --- | --- | --- | --- | --- | --- | --- | --- | --- | --- | --- | --- | --- | --- | --- | --- | --- | --- | --- |
| N/C(=N\O)NCCN1CCCCCCC1 | > 100 µM (inactive) | > 100 µM (inactive) | 12.1 µM (inactive) | > 100 µM (inactive) | > 100 µM (inactive) | > 100 µM (inactive) | > 100 µM (inactive) | > 100 µM (inactive) | > 100 µM (inactive) | > 100 µM (inactive) | > 100 µM (inactive) | > 100 µM (inactive) | > 100 µM (inactive) | 20.1 µM (inactive) | > 100 µM (inactive) | > 100 µM (inactive) | > 100 µM (inactive) | > 100 µM (inactive) | > 100 µM (inactive) | > 100 µM (inactive) |
| CCCn1c(C23CC4CC(CC(C4)C2)C3)nc2ccc(Cl)cc2c1=O | 74.8 µM (inactive) | 21.6 µM (inactive) | 30.1 µM (inactive) | 41.3 µM (inactive) | 30 µM (inactive) | 42.2 µM (inactive) | 26.1 µM (inactive) | 46.6 µM (inactive) | 47.1 µM (inactive) | > 100 µM (inactive) | 33 µM (inactive) | > 100 µM (inactive) | > 100 µM (inactive) | 21.2 µM (inactive) | 33.7 µM (inactive) | 43.6 µM (inactive) | 49 µM (inactive) | 36.1 µM (inactive) | 47.2 µM (inactive) | 15.6 µM (inactive) |
| C[C@]12C=CC(=O)C=C1CC[C@@H]1[C@@H]2C(=O)C[C@@]2(C)[C@H]1CC[C@]2(O)C(=O)CO [PREDNISONE] | > 100 µM (inactive) | > 100 µM (inactive) | 59.8 µM (inactive) | > 100 µM (inactive) | > 100 µM (inactive) | > 100 µM (inactive) | > 100 µM (inactive) | > 100 µM (inactive) | > 100 µM (inactive) | > 100 µM (inactive) | > 100 µM (inactive) | > 100 µM (inactive) | > 100 µM (inactive) | > 100 µM (inactive) | > 100 µM (inactive) | > 100 µM (inactive) | > 100 µM (inactive) | > 100 µM (inactive) | > 100 µM (inactive) | > 100 µM (inactive) |
| CCC[C@H](N[S+]([O-])c1ccc(C)cc1)C(C(=O)OCC)=C(c1ccccc1)c1ccccc1 (stereo not given in full) | 14.5 µM (inactive) | 21.4 µM (inactive) | 14.1 µM (inactive) | 22.1 µM (inactive) | 13.3 µM (inactive) | 16.7 µM (inactive) | 22 µM (inactive) | 17.8 µM (inactive) | 14.5 µM (inactive) | 17.4 µM (inactive) | 20.8 µM (inactive) | 18.7 µM (inactive) | 57.4 µM (inactive) | 22.4 µM (inactive) | 16.2 µM (inactive) | 21.3 µM (inactive) | 44.3 µM (inactive) | 17 µM (inactive) | 17.3 µM (inactive) | 14.8 µM (inactive) |
| C=C1CC2(OC1=O)c1ccccc1C=Cc1ccccc12 | 9.31 µM (inactive) | 0.661 µM (active) | 1.73 µM (inactive) | 7.33 µM (inactive) | 3.05 µM (inactive) | 4.4 µM (inactive) | 4.25 µM (inactive) | 18 µM (inactive) | 8.65 µM (inactive) | 4.94 µM (inactive) | 1.96 µM (inactive) | 2.26 µM (inactive) | 1.5 µM (inactive) | 4.8 µM (inactive) | 1.81 µM (inactive) | 1.2 µM (inactive) | 16 µM (inactive) | 11.2 µM (inactive) | 1.76 µM (inactive) | 8.3 µM (inactive) |
| Cc1cc(NC2=CC(=O)C(=O)c3ccccc32)no1 | 5.5 µM (inactive) | 6.22 µM (inactive) | 14.7 µM (inactive) | 2.26 µM (inactive) | 5.71 µM (inactive) | 8.22 µM (inactive) | 14.8 µM (inactive) | 9.1 µM (inactive) | 4.75 µM (inactive) | 2.49 µM (inactive) | 1.85 µM (inactive) | 2.83 µM (inactive) | 4.94 µM (inactive) | 11.7 µM (inactive) | 8.57 µM (inactive) | 3.89 µM (inactive) | 16.2 µM (inactive) | 6.87 µM (inactive) | 18.5 µM (inactive) | 7.94 µM (inactive) |
| O=C(NCC(=O)N1CCCC1C(=O)OC(=O)C1CCCN1C(=O)CNC(=O)OCc1ccccc1)OCc1ccccc1 (stereo not given) | 29.1 µM (inactive) | 46.9 µM (inactive) | 32.9 µM (inactive) | 26.5 µM (inactive) | > 100 µM (inactive) | 40.6 µM (inactive) | 17.7 µM (inactive) | 22.1 µM (inactive) | 20.4 µM (inactive) | 19.1 µM (inactive) | 25.3 µM (inactive) | 21.1 µM (inactive) | 76.9 µM (inactive) | 36.2 µM (inactive) | 16.8 µM (inactive) | 31 µM (inactive) | 39.4 µM (inactive) | 33.1 µM (inactive) | 52.7 µM (inactive) | 65.6 µM (inactive) |
